Tests used:
[1] = 30 day repeated dose toxicity in beagle dogs; type: in vivo
Experimental: The methods followed were as per CPMP/SWP/1042/99 (July 2000) and ICH S3A (March (1995)) guidelines. Prior to the 30 day repeated dose study, a dose range finding study was conducted, which included single dose MTD study followed by a 10 day repeated dose study. […]. The route of dosing was oral, by gelatin capsule. Based on the results of the dose range finding study, doses for the 30 days study were selected.
The 30 day repeated dose study employed 12 male and 12 female dogs (Marshall's Farm, China). The dogs were acclimatized for a minimum period of 2 weeks and randomly divided into four main groups (G1-G4), each group comprising of 3 dogs per sex. The animals were dosed orally with capsules of NRC-2694A for a period of 30 consecutive days at dose levels of 10 mg/kg b.wt/day (G2-low dose), 20 mg/kg b.wt/day (G3-mid dose) and 40 mg/kg b.wt/day (G4-high dose). […]. The control group (G1-0 mg/kg b. wt/day) animals were dosed by oral capsule with placebo.
The study also tracked body weight (weekly), food consumption (daily), opthalmological status (start and end), hematological and biochemical analyses (start and end), toxicokinetics analysis of plasma (start and end). […]

[2] = system: Salmonella typhimurium (TA 98, TA 100, TA 102, TA 1535 and TA 1537); assay: Ames bacterial reverse mutation assay; details: five tester strains, with or without S9
Experimental: The present study was conducted by the direct plate incorporation method with five tester strains of Salmonella typhimurium (TA 98, TA 100, TA 102, TA 1535 and TA 1537). […] Simultaneously, negative control cultures received DMSO and the respective positive controls received the mutagens 2-Amino anthracene, 2-Nitrofluorene, Sodium azide, 9-Aminoacridine and Mitomycin C (Sigma, St. Louis). In order to study the role of metabolic activation, cultures were incubated both with and without S9 mixture. The induction of Histidine positive colonies was computed and results were statistically treated for comparison.

[3] = Functional observational battery (FOB); type: in vivo, Wistar rats
Experimental: The study was conducted in accordance with “S7A Safety Pharmacology Studies for Human Pharmaceuticals, ICH” July 2001, and as per this study protocol. […] Rats that had been fasted for 16 to 18 hours (access to water was not interrupted) were dosed with the compound or water. The rats were administered the compound in an aqueous formulation at three levels, 75, 125 and 250 mg/kg b.wt, as a single oral dose by gavage. The control group received water. The rats were subjected to the FOB 60-120 min. after drug administration.
Animals were subjected to the FOB one at a time except for the multiple activity cage where four animals were placed in four different cages simultaneously. Once complete, the animals were returned to their home cage and the cage placed back on the stand.
The FOB can be employed to assess multiple neurobiological domains including neuromuscular (weakness, in coordination, gait and tremor), sensory (audition, vision and somatosensory), and autonomic (pupil response and salivation) functions. The measures of a neuro behavioral screening battery have been divided into specific functional domains. For example, Lacrimation, salivation, pupil response, palpebral closure, defecation and urination are measures of some aspects of the autonomic system. Similarly the neuro muscular domain can be assessed based on the gait/mobility score, landing foot splay, grip strength and righting reflex; sensorimotor domain based on response to tail pinch and click/touch/approach response; CNS excitability domain based on ease of removal and handling of the animal, clonic/tonic movements, arousal and vocalization; CNS activity domain based on home cage posture, palpebral closure, rearing and motor activity and finally the physiological domain is assessed based on the body weight, body temperature and piloerection.

[4] = Cardiovascular parameters in telemetered dogs; type: in vivo, Beagle dogs; details: for cardiovascular parameters (blood pressure, pulse pressure, heart rate, QT and QTcf intervals): telemetered male Beagle dogs, 15, 30 and 60 mg/kg b.wt. oral
Experimental: The study was conducted in accordance with ICH “S7A Safety Pharmacology Studies for Human Pharmaceuticals, Note for Guidance on Safety Pharmacology Studies for Human Pharmaceuticals, July 2001”. The doses tested were 0, 15, 30 and 60 mg/kg b.wt. given orally by gelatin capsule. Four male Beagle dogs, each implanted with a TL1IM2-D70-PCT transmitter (Data Sciences International, USA), were used for the study. During the study, the dogs were administered 4 oral treatments representing placebo and all test substance treatment groups with a three day (˜72 hour) wash-out period between each administration, using a Latin square cross-over design.
On dosing days, the telemetered dogs were observed once before commencement of data collection, continuously through 2 hours post-dose remotely and ˜8 hours post-dose for changes in behaviour. Cardiovascular parameters (systolic, diastolic and mean blood pressure, pulse pressure and heart rate) were recorded continuously for ˜60 minutes before dosing and up to 24 hours after dosing. Systolic, diastolic and mean blood pressures, pulse pressure and heart rate were obtained from the femoral artery waveform. Electrocardiograms were recorded continuously for ˜60 minutes before dosing and up to 24 hours after dosing. Electrocardiograms were obtained from subcutaneously placed bio-potential leads in a Lead II configuration. Heart rate and QT intervals were determined from the ECG's.

[5] = Respiratory function, whole body plethysmograph; type: in vivo; details: conscious male Wistar rats, 75, 125 and 250 mg/kg oral, 3 hours
Experimental: This study evaluated the effect of NRC-2694A monohydrochloride on respiratory function in conscious Wistar rats following administration of a single dose using a whole body plethysmograph. The study was conducted in accordance with “S7A Safety Pharmacology Studies for Human Pharmaceuticals, ICH” issued July 2001. The study used a parallel design with one vehicle and three test item treated groups. […] Male Wistar rats were placed in plethysmography chambers and baseline respiratory parameters were recorded for 30 minutes. Following drug administration respiratory parameters were recorded continuously for 3 hours.

[6] = Acute oral toxicity (MTD) in Wistar rats; type: in vivo
EPHA2 = target: T1, EPHA2 (Homo sapiens, UniProt P29317); assay: KinomeScan kinase profiling; type: binding
T1 construct: host or cells: E. coli host derived from BL21, T7 phage lysate
T1 sequence (P29317 24-976): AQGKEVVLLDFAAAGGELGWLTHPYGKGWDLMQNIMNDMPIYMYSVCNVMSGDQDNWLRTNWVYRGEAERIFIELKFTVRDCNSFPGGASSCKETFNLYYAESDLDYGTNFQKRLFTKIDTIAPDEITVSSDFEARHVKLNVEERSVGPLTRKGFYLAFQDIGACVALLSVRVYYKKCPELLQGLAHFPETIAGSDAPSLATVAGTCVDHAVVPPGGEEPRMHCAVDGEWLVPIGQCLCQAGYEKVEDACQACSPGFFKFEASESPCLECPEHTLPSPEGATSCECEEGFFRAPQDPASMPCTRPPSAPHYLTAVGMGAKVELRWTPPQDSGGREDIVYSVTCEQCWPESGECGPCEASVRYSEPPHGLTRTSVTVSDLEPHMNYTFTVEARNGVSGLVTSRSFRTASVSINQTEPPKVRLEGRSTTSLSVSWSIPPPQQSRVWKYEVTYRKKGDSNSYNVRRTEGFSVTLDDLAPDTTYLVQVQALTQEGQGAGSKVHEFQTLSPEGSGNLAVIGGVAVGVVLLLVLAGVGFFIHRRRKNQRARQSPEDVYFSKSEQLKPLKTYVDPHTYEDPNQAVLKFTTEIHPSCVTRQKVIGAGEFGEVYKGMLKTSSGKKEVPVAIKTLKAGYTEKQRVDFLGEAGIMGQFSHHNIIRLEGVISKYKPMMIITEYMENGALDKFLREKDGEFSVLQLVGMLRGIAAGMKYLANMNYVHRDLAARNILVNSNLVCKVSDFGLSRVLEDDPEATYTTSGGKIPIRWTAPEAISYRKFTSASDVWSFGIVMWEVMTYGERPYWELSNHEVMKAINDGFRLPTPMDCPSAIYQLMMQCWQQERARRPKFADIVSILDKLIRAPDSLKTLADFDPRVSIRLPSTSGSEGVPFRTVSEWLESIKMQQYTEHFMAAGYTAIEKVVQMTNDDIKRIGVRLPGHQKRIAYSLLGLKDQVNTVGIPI

CHEK1 = target: T2, CHEK1 (Homo sapiens, UniProt O14757); assay: KinomeScan kinase profiling; type: binding
T2 construct: host or cells: T7 phage in E. coli (BL21-derived)
T2 sequence (O14757 whole entry): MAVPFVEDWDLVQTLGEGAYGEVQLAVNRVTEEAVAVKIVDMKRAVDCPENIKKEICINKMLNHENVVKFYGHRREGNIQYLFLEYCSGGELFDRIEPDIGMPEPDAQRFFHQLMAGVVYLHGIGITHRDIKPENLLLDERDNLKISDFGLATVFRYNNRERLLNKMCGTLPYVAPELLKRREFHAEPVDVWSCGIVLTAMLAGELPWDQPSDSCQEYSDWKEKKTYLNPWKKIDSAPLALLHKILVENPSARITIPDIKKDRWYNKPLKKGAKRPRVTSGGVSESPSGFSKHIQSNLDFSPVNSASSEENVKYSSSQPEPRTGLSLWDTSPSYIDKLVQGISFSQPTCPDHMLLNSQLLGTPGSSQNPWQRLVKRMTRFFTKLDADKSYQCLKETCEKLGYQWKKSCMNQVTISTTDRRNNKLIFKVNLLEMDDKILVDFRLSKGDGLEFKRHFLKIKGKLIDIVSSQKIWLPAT

EPHA1 = target: T3, EPHA1 (Homo sapiens, UniProt P21709); assay: KinomeScan kinase profiling; type: binding
T3 construct: host or cells: E. coli host derived from BL21, T7 phage lysate
T3 sequence (P21709 26-976): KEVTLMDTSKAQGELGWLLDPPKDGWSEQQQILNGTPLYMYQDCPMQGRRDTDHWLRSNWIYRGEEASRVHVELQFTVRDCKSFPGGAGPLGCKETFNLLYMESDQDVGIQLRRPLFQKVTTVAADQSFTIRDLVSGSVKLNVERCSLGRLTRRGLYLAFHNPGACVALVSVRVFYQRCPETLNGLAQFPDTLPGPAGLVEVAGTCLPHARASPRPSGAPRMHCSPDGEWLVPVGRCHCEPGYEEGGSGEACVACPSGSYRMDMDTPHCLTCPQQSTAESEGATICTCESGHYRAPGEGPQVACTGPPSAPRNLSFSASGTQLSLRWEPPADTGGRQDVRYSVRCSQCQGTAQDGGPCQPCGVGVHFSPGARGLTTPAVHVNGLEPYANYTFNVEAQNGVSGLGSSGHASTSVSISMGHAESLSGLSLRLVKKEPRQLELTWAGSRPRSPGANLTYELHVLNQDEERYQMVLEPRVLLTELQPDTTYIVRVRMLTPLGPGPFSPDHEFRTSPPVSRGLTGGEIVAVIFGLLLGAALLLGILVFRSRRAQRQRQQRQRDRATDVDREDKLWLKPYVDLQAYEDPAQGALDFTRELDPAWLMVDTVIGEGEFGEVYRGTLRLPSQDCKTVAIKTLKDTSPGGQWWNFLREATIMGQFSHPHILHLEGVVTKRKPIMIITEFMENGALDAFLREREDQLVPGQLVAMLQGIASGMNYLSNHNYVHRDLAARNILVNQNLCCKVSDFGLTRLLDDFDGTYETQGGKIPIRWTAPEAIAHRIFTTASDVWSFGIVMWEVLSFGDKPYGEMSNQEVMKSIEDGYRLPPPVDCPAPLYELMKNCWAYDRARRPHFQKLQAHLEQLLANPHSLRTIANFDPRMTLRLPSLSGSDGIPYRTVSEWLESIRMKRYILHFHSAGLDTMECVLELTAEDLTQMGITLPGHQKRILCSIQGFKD

ACVRL1 = target: T4, ACVRL1 (Homo sapiens, UniProt P37023); assay: KinomeScan kinase profiling; type: binding
T4 construct: host or cells: E. coli host derived from BL21 (T7 phage lysate)
T4 sequence (P37023 22-503): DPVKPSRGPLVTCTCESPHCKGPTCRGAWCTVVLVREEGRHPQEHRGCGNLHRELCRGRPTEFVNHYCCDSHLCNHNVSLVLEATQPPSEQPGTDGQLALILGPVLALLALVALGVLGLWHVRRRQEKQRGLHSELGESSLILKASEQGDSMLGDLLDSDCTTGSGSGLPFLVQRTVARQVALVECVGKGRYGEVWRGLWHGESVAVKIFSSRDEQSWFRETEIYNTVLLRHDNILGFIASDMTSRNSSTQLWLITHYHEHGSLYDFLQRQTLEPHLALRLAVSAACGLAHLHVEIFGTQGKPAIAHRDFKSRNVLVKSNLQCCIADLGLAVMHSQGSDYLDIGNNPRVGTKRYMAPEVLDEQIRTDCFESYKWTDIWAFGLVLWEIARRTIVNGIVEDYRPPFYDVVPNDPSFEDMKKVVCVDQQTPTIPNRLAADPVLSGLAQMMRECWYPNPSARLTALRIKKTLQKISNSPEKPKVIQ

**Q.** For `C#Cc1cccc(Nc2ncnc3cc(OC)c(OCCCN4CCOCC4)cc23)c1.Cl` [NRC-2694 monohydrochloride, N-(3-ethylnylphenyl)-7-methoxy-6-[3-(4-morpholinyl)propoxy]-4-quinazolinamine mono hydrochloride], which “no observed adverse effect level (NOAEL)” value ([1]; beagle dogs, 30 days, orally by capsule) is on record?
**A.** The value was 10 mg/kg b.wt/day.

**Q.** And the symptoms of toxicity ([1]; dogs, low dose (G2) 10 mg/kg b.wt/day, 30 days)?
**A.** The symptoms of toxicity was “No symptoms of toxicity”.

**Q.** What about the “mutagenicity in the Ames test” value [2] of the same compound?
**A.** The value was “non-mutagenic”.

**Q.** And the “adverse effects in the functional observational battery” value ([3]; Wistar rats, 75, 125 and 250 mg/kg b.wt single oral dose)?
**A.** Its value is “did not show any adverse effects”.

**Q.** And the “influence on the parameters of the FOB” value ([3]; Wistar rats, 75, 125 and 250 mg/kg b.wt, 60-120 minutes post treatment)?
**A.** Its value is “no influence on any of the parameters”.

**Q.** What about the “no observed effect level” value ([4]; cardiovascular parameters, male Beagle dogs, oral) of the same compound?
**A.** Its value is 60 mg/kg b.wt.

**Q.** What about the “cardiovascular parameters (blood pressure, pulse pressure, heart rate, QT and QTcf intervals)” value [4] of the same compound?
**A.** The value was “no significant negative effects”.

**Q.** And the “respiratory parameters: respiratory rate, tidal volume, minute volume, and Penh” value [5]?
**A.** The value was “did not influence any of the observed parameters”.

**Q.** And the “maximum tolerated dose (MTD)” value ([6]; acute oral gavage, Wistar rats)?
**A.** The value was 1000 mg/kg body weight.

**Q.** And the gross pathological examination ([6]; rats)?
**A.** The gross pathological examination was “did not reveal any lesions of pathological significance, except minimal uterus distension in two female rats”.

**Q.** What about the “chromodacryoorhea, incidence” value ([6]; rats, G4 1000 mg/kg body wt.) of the same compound?
**A.** Its value is 10/10.

**Q.** And the “mild to severe lethargy, incidence” value ([6]; rats, G4 1000 mg/kg body wt.)?
**A.** Its value is 10/10.

**Q.** What about the “piloerection, incidence” value ([6]; rats, G4 1000 mg/kg body wt.) of the same compound?
**A.** The value was 10/10.

**Q.** And the “ptosis, incidence” value ([6]; rats, G4 1000 mg/kg body wt.)?
**A.** The value was 4/10.

**Q.** And the “weakness, incidence” value ([6]; rats, G4 1000 mg/kg body wt.)?
**A.** Its value is 1/10.

**Q.** What about the “body weight and percent body weight change” value ([6]; rats, mid and high dose, days 7 and 14) of the same compound?
**A.** Its value is “Statistically significant reduction”.

**Q.** What about the toxic signs ([6]; rats, oral gavage, 1000 mg/kg body weight (high dose)) of the same compound?
**A.** Its toxic signs is “marked toxic signs with reduction in body weight but devoid of any pathological lesions and mortality”.

**Q.** And the “major toxic signs or mortality” value ([6]; rats, oral gavage, 250 (low dose) and 500 mg/kg body weight (mid dose))?
**A.** The value was “did not produce any major toxic signs or mortality”.

**Q.** And the mortality ([6]; rats, oral, 250, 500 and 1000 mg/kg)?
**A.** The mortality was “No mortality”.

**Q.** With `C#Cc1cccc(Nc2ncnc3cc(OC)c(OCCCN4CCOCC4)cc23)c1` [NRC-2694, N-(3-ethylnylphenyl)-7-methoxy-6-[3-(4-morpholinyl)propoxy]-4-quinazolinamine] as the compound, how does the “toxicity compared with Erlotinib” value ([1]; beagle dogs) read?
**A.** The value was “significantly less toxic than Erlotinib HCl”.

**Q.** What about the “mutagenicity in the Ames test” value [2] of the same compound?
**A.** Its value is “not mutagenic”.

**Q.** What about the “induction of His revertant colonies” value ([2]; 0.0125-1.2500 mg/plate) of the same compound?
**A.** The value was “lack of statistically significant induction”.

**Q.** And the “neurotoxicity toward the central and peripheral nervous system” value ([3]; Wistar rats, FOB)?
**A.** The value was “no evidence of neurotoxicity”.

**Q.** What about the “% Ctrl @ 10000 nM” value (EPHA2) of the same compound?
**A.** Its value is 100 % Ctrl.

**Q.** And the “cardiovascular parameters (blood pressure, pulse pressure, heart rate, QT and QTcf intervals)” value [4]?
**A.** Its value is “lacks toxicity against cardiovascular function”.

**Q.** What about the “respiratory parameters: respiratory rate, tidal volume, minute volume, and Penh” value [5] of the same compound?
**A.** Its value is “lacks toxicity against respiratory function”.

**Q.** And the “MTD, mice compared with rats” value ([6]; rat, in vivo)?
**A.** The value was “the same in mice and rats”.

**Q.** What about the “% Ctrl @ 10000 nM” value (CHEK1) of the same compound?
**A.** The value was 42 % Ctrl.

**Q.** And the “% Ctrl @ 10000 nM” value (EPHA1)?
**A.** Its value is 55 % Ctrl.

**Q.** What about the “% Ctrl @ 10000 nM” value (ACVRL1) of the same compound?
**A.** Its value is 91 % Ctrl.
